Assay results taken from patent publication US6503947B1, “Method of treating cytotoxic damage” (Brigham and Women's Hospital, priority 1998, dated 2003).

Columns and labels:
complement C3 = complement C3 (Homo sapiens, UniProt P01024); experiment: complement C3 inhibitory IC50 of SHA; assay type: biochemical
[1] = Pharmacokinetics of SHA in blood and brain after i.p. injection; assay type: in vivo, Sprague-Dawley rats; details: 400 mg/kg i.p., rat
Experimental: SHA (400 mg/kg) was injected intraperitoneally (i.p.) into Sprague-Dawley rats. At fixed time intervals after injection, blood samples were collected, and perfused brain was removed and homogenized. Acidified blood and brain samples were extracted in ethyl acetate. SHA was quantitated by reverse phase HPLC at 310 nm, and compared to known amounts of standards that had been added to blood or brain tissue as shown in FIG. 4.
The time of SHA injection after the onset of ischemia or reperfusion can be systematically varied to determine other ranges in which therapeutic intervention is available using this drug.

[2] = tested on: mice subjected to middle cerebral artery occlusion; experiment: Middle cerebral artery (MCA) occlusion stroke model, infarct volume with SHA; assay type: in vivo, C57BL/6 mice; details: 400 mg/kg i.p. twice (at occlusion and 1.5 h later), sacrifice at 24 hours, mean±SEM, n=3
Experimental: FIG. 5 is a graph depicting the infarct volume of C57BL/6 mice subjected to middle cerebral artery occlusion and treated with saline (Control, n=3) or SHA (SHA, n=3).
SHA was tested for its ability to prevent cytotoxic damage by using the middle cerebral artery (MCA) occlusion stroke model (Longa et al., supra). Briefly, this system involves anesthetizing mice with isoflurane and then maintaining the body temperature of the mice at 36±1° C. A 6.0 monofilament nylon suture with silicone-coated tip was then advanced into the internal carotid artery about 9 mm via the external carotid artery. Immediately after the filament was secured, SHA (400 mg/kg i.p.) or vehicle (normal saline) was injected. At 1.5 hours after the first injection, a second i.p. injection was given to the animal. 2 hours later the animals were re-anesthetized and the filament was removed to allow reperfusion. Cerebral blood flow, blood pressure, blood gases, pH, and serum glucose were monitored in these studies. At 24 hours the animals were sacrificed, brains removed and 1 mm thick brain section are cut on a vibratome. The brain slices were stained with 2% triphenyltetrazolium choloride. The infarct volume was obtained as described in Swanson et al., supra with results being (mean+SEM, n=3 in each group) 62.6±34.2 mm^3 in the vehicle-treated group versus 6.1±6.0 mm^3 in the SHA-treated group.

[3] = tested on: mice subjected to middle cerebral artery occlusion; experiment: Intravenous injection of tPA into tPA-deficient or wild-type mice with intraluminal filament MCA occlusion; assay type: in vivo, mice (C57BL/6 or SV129)
Experimental: Wild-type and tPA-deficient male mice (on C57Black/6 and SV129 backgrounds) weighing 23-27 grams were housed in a 12 hour light/dark cycle and permitted food and water intake ad libitum. Transient ischemia/reperfusion was performed using the intravascular filament model to occlude the middle cerebral artery unilaterally for 2 or 3 hours followed by reperfusion for the remainder of the 24 hour period as described in Longa et al., Stroke 20, 84-91 (1989) and Soriano. et al. Ann. Neurol. 39, 618-624 (1996). Briefly, under isoflurane anesthesia, a 6.0 nylon filament coated with silicone was threaded into the lumen of the middle cerebral artery of mice (C57Black/6 and SVI29 backgrounds) to produce transient ischemia. After 2 or 3 hours of occlusion, the filament was gently withdrawn to allow tissue reperfusion. Body temperature was maintained at 36.5±1.0° C. […] Animals were sacrificed 24 hours after the onset of the insult as described in Huang et al. Science 265, 1883-1885 (1994) and Soriano, supra. Infarct volumes were digitally quantified on 1.5 mm thick coronal sections after correction for edema by measuring TTC staining, as described in Soriano, supra, Bederson et al., Stroke 17,472-476 (1986); Swanson et al., J. Cereb. Blood Flow Metab. 10, 290-293 (1990), Lin et al., Stroke 24, 117-121 (1993); Zhang, et al., Neurology 44, 1747-1751 (1994); and Chopp et al. Stroke 25, 869-876 (1994)). Infarct volume decreased from 116±8 mm^3 in control wild-type mice to 69±7 mm^3 in tPA-deficient mice (mean±s.e.m., n=19 mice), as shown in FIG. 1. Under these conditions, there is no thrombosis at the occluded site, so the absence of tPA would not contribute to damage via an enhanced clotting cascade.
To determine the effect of intravenous injection of tPA into tPA-deficient or wild-type mice (C57BL/6 or SV129), intravenous tPA was administered intravenously, 10% initially by bolus, followed by constant infusion over twenty to thirty minutes at 0.9-1.0 mg/kg (similar to rt-PA Stroke Study Group, N. EngL J. Med. 333, 1581-1587 (1995) and Hacke. et al. JAMA 274, 1017-1025 (1995). The formula for the carrier used to dilute tPA was obtained from the manufacturer (Genentech, San Francisco, Calif.) and was used as one of the control injections. The diluent consisted of 0.02 M arginine phosphate at pH 7.3 with 0.001% Tween. […] In wildtype, but not tPA deficient mice, ischemia induced an increase in tPA activity, as assessed by histological zymography. Briefly, wild-type or tPA deficient mice were subjected to 2 hours of focal ischemia. After 10 minutes of reperfusion, the animals were sacrificed and their brains frozen as described previously (Tsirka et al., Nature 377, 340-344 (1995)). Then, 12 μm consecutive coronal brain cryostat sections were subjected to histological zymography to visualize tPA activity with or without amiloride (1 mM, a specific urokinase [uPA] inhibitor) (Sappino et al J. Clin. Invest. 92, 679-685 (1993) and Rosenberg et al., Cereb. Blood Flow Metab. 16, 360-366 (1996)). The sections were overlaid with a milk-agarose substrate matrix containing 50 ug/ml of purified human plasminogen and 1 mg/ml amiloride. […]
Regional cerebral blood flow was also monitored by the laser Doppler flowmetry technique as described in Dimagl et al J. Cereb. […] Briefly, the initial reading of regional Cerebral Blood Flow (rCBF) was assigned a value of 100% and subsequent readings were expressed relative to this value. […]

Chain of complement C3 (P01024 23-1663, species assumed): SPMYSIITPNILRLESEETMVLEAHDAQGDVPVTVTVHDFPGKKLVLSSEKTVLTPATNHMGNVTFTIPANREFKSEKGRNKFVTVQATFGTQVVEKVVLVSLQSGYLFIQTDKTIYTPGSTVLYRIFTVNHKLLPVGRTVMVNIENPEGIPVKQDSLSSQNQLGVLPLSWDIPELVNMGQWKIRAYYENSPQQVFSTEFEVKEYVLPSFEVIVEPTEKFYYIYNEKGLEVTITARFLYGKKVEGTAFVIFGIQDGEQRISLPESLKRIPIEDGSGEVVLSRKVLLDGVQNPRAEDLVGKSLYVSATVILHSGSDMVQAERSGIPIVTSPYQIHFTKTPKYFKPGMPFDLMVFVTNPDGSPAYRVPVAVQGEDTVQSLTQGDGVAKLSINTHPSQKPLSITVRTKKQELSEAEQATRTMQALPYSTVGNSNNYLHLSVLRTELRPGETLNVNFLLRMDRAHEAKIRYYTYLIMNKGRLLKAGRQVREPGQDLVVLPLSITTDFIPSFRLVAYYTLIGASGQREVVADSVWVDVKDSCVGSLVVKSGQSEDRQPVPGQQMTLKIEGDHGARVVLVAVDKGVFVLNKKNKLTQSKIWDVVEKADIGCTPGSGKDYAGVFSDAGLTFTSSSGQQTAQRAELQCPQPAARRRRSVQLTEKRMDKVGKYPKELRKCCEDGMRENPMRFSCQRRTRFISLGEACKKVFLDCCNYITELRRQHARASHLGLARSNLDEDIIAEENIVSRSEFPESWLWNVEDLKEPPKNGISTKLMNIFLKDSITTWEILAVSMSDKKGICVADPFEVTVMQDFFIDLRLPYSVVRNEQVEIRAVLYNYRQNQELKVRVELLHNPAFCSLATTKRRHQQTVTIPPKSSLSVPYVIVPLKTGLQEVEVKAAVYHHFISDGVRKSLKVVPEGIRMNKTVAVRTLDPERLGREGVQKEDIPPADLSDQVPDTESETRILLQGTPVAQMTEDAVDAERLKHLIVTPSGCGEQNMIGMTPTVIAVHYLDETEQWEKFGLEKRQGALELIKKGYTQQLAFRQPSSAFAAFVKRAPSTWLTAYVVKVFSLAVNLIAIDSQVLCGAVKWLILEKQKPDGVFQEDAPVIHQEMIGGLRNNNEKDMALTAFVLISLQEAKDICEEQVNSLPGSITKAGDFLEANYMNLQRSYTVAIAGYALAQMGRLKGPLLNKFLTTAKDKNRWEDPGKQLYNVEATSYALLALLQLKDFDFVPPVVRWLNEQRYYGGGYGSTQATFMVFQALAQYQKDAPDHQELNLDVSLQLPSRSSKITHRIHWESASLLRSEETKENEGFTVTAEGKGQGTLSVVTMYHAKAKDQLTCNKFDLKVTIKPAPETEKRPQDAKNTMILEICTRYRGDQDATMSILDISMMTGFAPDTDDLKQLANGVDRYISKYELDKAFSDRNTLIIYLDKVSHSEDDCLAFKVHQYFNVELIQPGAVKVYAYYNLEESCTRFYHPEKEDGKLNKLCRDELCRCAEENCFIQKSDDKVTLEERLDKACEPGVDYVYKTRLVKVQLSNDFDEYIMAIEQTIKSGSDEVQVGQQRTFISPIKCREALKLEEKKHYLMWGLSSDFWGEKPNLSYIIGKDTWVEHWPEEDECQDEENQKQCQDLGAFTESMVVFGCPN

Molecule | IC50 (complement C3) [µM] | complement C3 inhibitory IC50, equivalent brain concentration (complement C3; equivalent of the IC50 expressed per g brain) [mg SHA/g brain] | ability to cross the blood-brain barrier ([1]; normal brain) | time after injection during which SHA concentration in blood and brain exceeds the complement C3 IC50 ([1]; blood and brain) [h] | time of peak concentration in blood and brain after drug administration ([1]; blood and brain) | infarct volume [2] [mm^3] | hemorrhage or other bleeding diathesis at postmortem examination ([3]; tPA 0.9-1.0 mg/kg i.v., all animals) | entry of tPA activity into the brain (histological zymography) ([3]; tPA-deficient mice, intravenous exogenous tPA) | increase in size of cerebral infarction ([3]; tPA-deficient mice, tPA 0.9-1.0 mg/kg i.v.) | effect on size of the stroke with large cerebral infarcts ([3]; wild-type mice, 3 hours of vascular occlusion, versus control animals not receiving tPA) | increase in size of cerebral infarction ([3]; wild-type mice, tPA 0.9-1.0 mg/kg i.v., 2 hour occlusion)
O=C(NO)c1ccccc1O [SHA, salicylhydroxamic acid] | 8.3 | 0.0013 | able to cross the blood-brain barrier quite effectively | 2 | about 30 minutes | 6.1±6.0 |  |  |  |  | 
tPA: serine protease tissue plasminogen activator, thrombolytic agent, commercially available from Genentech |  |  |  |  |  |  | No hemorrhage or other bleeding diathesis occurred | apparent entry of tPA activity into the brain | near doubling of the damage | did not enhance the size of the stroke | 20-35%
